According to US20120065187A1 (ALCON RESEARCH, LTD, priority 2008, published 2012):
Counter-ions that a name gives are not always drawn.

What was measured:
human H4 = biological target: T1, human H4 (Homo sapiens, UniProt Q9H3N8); assay: In vitro histamine receptor cell-based assay (aequorin bioluminescence), H4 antagonism; details: CHO-K1 cells expressing human H4, aequorin and Gα16; histamine at EC80; read-out: H4 Antagonist EC50
T1 construct: host or cells: CHO-K1
Method: (§1) The cell-based assays utilize an aequorin dependent bioluminescence signal. Doubly-transfected, stable CHO-K1 cell lines expressing human H1 or H4, mitochondrion-targeted aequorin, and (H4 only) human G protein Gα16 are obtained from Perkin-Elmer. Cells are maintained in F12 (Ham's) growth medium, containing 10% (vol./vol.) fetal bovine serum, penicillin (100 IU/mL), streptomycin (0.1 mg/mL), zeocin (0.25 mg/mL) and geneticin (0.40 mg/mL). Cell media components are from Invitrogen, Inc. One day prior to assay, the growth medium is replaced with the same, excluding zeocin and geneticin.
(§2) For assay preparation, growth medium is aspirated, and cells are rinsed with calcium-free, magnesium-free phosphate-buffered saline, followed by two to three minute incubation in Versene (Invitrogen, Inc.) at 37° C. Assay medium (DMEM:F12 [50:50], phenol-red free, containing 1 mg/mL protease-free bovine serum albumin) is added to collect the released cells, which are then centrifuged. The cell pellet is re-suspended in assay medium, centrifuged once more, and re-suspended in assay medium to a final density of 5×10^6 cells/mL. Coelenterazine-h dye (500 μM in ethanol) is added to a final concentration of 5 μM, and mixed immediately. The conical tube containing the cells is then wrapped with foil to protect the light-sensitive dye. The cells are incubated for four hours further at room temperature (approximately 21° C.) with end-over-end rotation to keep them in suspension.
Just before assay, the dye-loaded cells are diluted to 0.75×10^6 cells/mL (H1 receptor) or 1.5×10^6 cells/mL (H4 receptor) with additional assay medium. Cells are dispensed to 1536 well micro-titer plates at 3 μL/well. To assay receptor antagonism, 60 nl of 100× concentration test compounds in 100% dimethyl sulfoxide (DMSO) are dispensed to the wells, one compound per well, by passive pin transfer, and the plates are incubated for 15 minutes at room temperature. […] The pipette dispenses 3 μL/well of agonist (histamine, at twice the final concentration, where final concentration is a previously determined EC80) in assay medium, with concurrent bioluminescence detection. Agonist activity of test compounds is excluded by separate assays that measure response to test compounds immediately, without added histamine agonist.
(§3) CCD image capture on the Lumilux includes a 5 second baseline read prior to agonist addition, and generally a 40 second read per plate after agonist addition. A decrease in bioluminescence signal (measured either as area-under-the-curve, or maximum signal amplitude minus minimum signal amplitude) correlates with receptor antagonism in a dose dependent manner. The negative control is DMSO lacking any test compound. For antagonist assays, the positive controls are diphenhydramine (2-Diphenylmethoxy-N,N-dimethylethylamine, 10 μM final concentration, H1 receptor) or JNJ7777120 (1-[(5-Chloro-1H-indol-2-yl)carbonyl]-4-methyl-piperazine, 10 μM final concentration, H4 receptor). Efficacy is measured as a percentage of positive control activity.

human H1 = biological target: T2, human H1 (Homo sapiens, UniProt P35367); assay: In vitro histamine receptor cell-based assay (aequorin bioluminescence), H1 antagonism; details: CHO-K1 cells expressing human H1 and aequorin; histamine at EC80; read-out: H1 Antagonist EC50
T2 construct: host or cells: CHO-K1
Method: as §1, §2
Just before assay, the dye-loaded cells are diluted to 0.75×10^6 cells/mL (H1 receptor) or 1.5×10^6 cells/mL (H4 receptor) with additional assay medium. Cells are dispensed to 1536 well micro-titer plates at 3 μL/well. To assay receptor antagonism, 60 nl of 100× concentration test compounds in 100% dimethyl sulfoxide (DMSO) are dispensed to the wells, one compound per well, by passive pin transfer, and the plates are incubated for 15 minutes at room temperature. Assay plates are then transferred to a Lumilux bioluminescence plate reader (Perkin-Elmer) equipped with an automated 1536 disposable tip pipette. The pipette dispenses 3 μL/well of agonist (histamine, at twice the final concentration, where final concentration is a previously determined EC80) in assay medium, with concurrent bioluminescence detection. Agonist activity of test compounds is excluded by separate assays that measure response to test compounds immediately, without added histamine agonist.
as §3

T2 sequence (P35367 whole entry): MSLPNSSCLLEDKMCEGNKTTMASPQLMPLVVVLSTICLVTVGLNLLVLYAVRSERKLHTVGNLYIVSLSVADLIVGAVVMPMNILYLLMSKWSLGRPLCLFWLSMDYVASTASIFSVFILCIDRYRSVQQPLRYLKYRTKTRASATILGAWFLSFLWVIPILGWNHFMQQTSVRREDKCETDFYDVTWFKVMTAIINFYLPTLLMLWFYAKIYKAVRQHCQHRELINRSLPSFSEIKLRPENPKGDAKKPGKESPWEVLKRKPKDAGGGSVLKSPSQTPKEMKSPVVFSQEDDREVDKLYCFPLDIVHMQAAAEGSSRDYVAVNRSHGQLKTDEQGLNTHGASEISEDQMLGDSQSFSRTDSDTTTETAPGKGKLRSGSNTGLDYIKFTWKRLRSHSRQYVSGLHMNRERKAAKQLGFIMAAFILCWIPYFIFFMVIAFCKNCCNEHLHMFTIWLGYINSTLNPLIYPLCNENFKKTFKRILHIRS

Compound | EC50 (human H4) | EC50 (human H1)
Clc1ccc2nc(C3=CCNCC3)c3nncn3c2c1 [Example 1, 8-chloro-4-(1,2,3,6-tetrahydropyridin-4-yl)-[1,2,4]triazolo[4,3-a]quinoxaline] | > 10 µM | > 10 µM
CN1CC=C(c2nc3ccc(Cl)cc3n3cnnc23)CC1 [Example 2, 8-Chloro-4-(1-methyl-1,2,3,6-tetrahydropyridin-4-yl)-[1,2,4]triazolo[4,3-a]quinoxaline] | < 10 µM | > 10 µM
Clc1ccc2nc(C3CCNCC3)c3nncn3c2c1 [Example 3, 8-Chloro-4-(piperidin-4-yl)-[1,2,4]triazolo[4,3-a]quinoxaline] | > 10 µM | > 10 µM
CN1CCC(c2nc3ccc(Cl)cc3n3cnnc23)CC1 [Example 4, 8-Chloro-4-(1-methylpiperidin-4-yl)-[1,2,4]triazolo[4,3-a]quinoxaline] | < 10 µM | > 10 µM
CN1CCN(C2=Nc3ccc(Cl)cc3N3CCN=C23)CC1 [Example 5, 8-Chloro-4-(4-methylpiperazin-1-yl)-1,2-dihydroimidazo[1,2-a]quinoxaline] | < 10 µM | > 10 µM
Clc1ccc2c(c1)N1CCN=C1C(N1CCNCC1)=N2 [Example 6, 8-Chloro-4-(piperazin-1-yl)-1,2-dihydroimidazo[1,2-a]quinoxaline] | < 10 µM | > 10 µM
Clc1ccc2nc(N3CCNCC3)c3nccn3c2c1 [Example 8, 8-Chloro-4-(piperazin-1-yl)imidazo[1,2-a]quinoxaline] | < 10 µM | > 10 µM
Cc1cn2c(n1)c(N1CCNCC1)nc1ccc(Cl)cc12 [Example 10, 8-Chloro-2-methyl-4-(piperazin-1-yl)imidazo[1,2-a]quinoxaline] | > 10 µM | > 10 µM
Clc1ccc2nc(N3CCNCC3)n3nnnc3c2c1 [Example 12, 9-Chloro-5-(piperazin-1-yl)tetrazolo[1,5-c]quinazoline] | < 10 µM | > 10 µM
Cc1ccc2nc(N3CCNCC3)c3nncn3c2c1 [Example 22, 8-Methyl-4-(piperazin-1-yl)-[1,2,4]triazolo[4,3-a]quinoxaline] | < 10 µM | > 10 µM
CN1CCN(c2nc3cc(C(F)(F)F)ccc3n3cnnc23)CC1 [Example 25, 4-(4-methylpiperazin-1-yl)-7-(trifluoromethyl)-[1,2,4]triazolo[4,3-a]quinoxaline] | < 10 µM | > 10 µM
FC(F)(F)c1ccc2c(c1)nc(N1CCNCC1)c1nncn12 [Example 26, 4-(piperazin-1-yl)-7-(trifluoromethyl)-[1,2,4]triazolo[4,3-a]quinoxaline] | > 10 µM | > 10 µM
FC(F)(F)c1ccc2c(c1)nc(N1CCNCC1)c1nnnn12 [Example 30, 4-(piperazin-1-yl)-7-(trifluoromethyl)tetrazolo[1,5-a]quinoxaline hydrochloride] | < 10 µM | > 10 µM
Cc1cc2c(cc1F)nc(N1CCN(C)CC1)c1nncn12 [Example 34, 7-fluoro-8-methyl-4-(4-methylpiperazin-1-yl)-[1,2,4]triazolo[4,3-a]quinoxaline] | < 10 µM | > 10 µM
Cc1cc2c(cc1F)nc(N1CCNCC1)c1nncn12 [Example 35] | > 10 µM | > 10 µM
Cc1cc2nc(N3CCN(C)CC3)c3nncn3c2cc1F [Example 36, 8-fluoro-7-methyl-4-(4-methylpiperazin-1-yl)-[1,2,4]triazolo[4,3-a]quinoxaline] | < 10 µM | > 10 µM
Fc1cc2nc(N3CCNCC3)c3nncn3c2cc1F [Example 38, 7,8-difluoro-4-(piperazin-1-yl)-[1,2,4]triazolo[4,3-a]quinoxaline] | < 10 µM | > 10 µM
CN1CCN(c2nc3cc(C(F)(F)F)c(F)cc3n3cnnc23)CC1 [Example 42, 8-fluoro-4-(4-methylpiperazin-1-yl)-7-(trifluoromethyl)-[1,2,4]triazolo[4,3-a]quinoxaline] | < 10 µM | > 10 µM
Fc1cc2c(cc1C(F)(F)F)nc(N1CCNCC1)c1nncn12 [Example 43, 8-Fluoro-4-(piperazin-1-yl)-7-(trifluoromethyl)-[1,2,4]triazolo[4,3-a]quinoxaline] | < 10 µM | > 10 µM
CN1CCN(c2nc3cc(Cl)c(C(F)(F)F)cc3n3cnnc23)CC1 [Example 44, 7-Chloro-4-(4-methylpiperazin-1-yl)-8-(trifluoromethyl)-[1,2,4]triazolo[4,3-a]quinoxaline] | < 10 µM | > 10 µM
FC(F)(F)c1ccc2nc(N3CCNCC3)c3nocc3c2c1 [Example 219, 4-piperazinyl-8-(trifluoromethyl)isoxazolo[3,4-c]quinoline] | – | > 10 µM
Cc1nc2c3cc(Cl)cc(F)c3nc(N3CCNCC3)n2n1 [Example 247, 9-chloro-7-fluoro-2-methyl-5-(piperazin-1-yl)-[1,2,4]triazolo[1,5-c]quinazoline] | < 10 µM | –
Cc1nc2c3cc(Br)cc(F)c3nc(N3CCN(C)CC3)n2n1 [Example 248, 9-bromo-7-fluoro-2-methyl-5-(4-methylpiperazin-1-yl)-[1,2,4]triazolo[1,5-c]quinazoline] | < 10 µM | –

Continued, values first:

EC50 (human H4) | EC50 (human H1) | Compound
< 10 µM | > 10 µM | Cc1cn2c(n1)c(N1CCN(C)CC1)nc1ccc(Cl)cc12 [Example 9, 8-Chloro-2-methyl-4-(4-methylpiperazin-1-yl)imidazo[1,2-a]quinoxaline]
< 10 µM | > 10 µM | Cc1cn2c(n1)c(N1CCN(C)CC1)nc1cc(Cl)ccc12 [Example 11, 7-Chloro-2-methyl-4-(4-methylpiperazin-1-yl)imidazo[1,2-a]quinoxaline]
< 10 µM | > 10 µM | CN1CCN(c2nc3ccc(Cl)cc3c3nnnn23)CC1 [Example 13, 9-chloro-5-(4-methylpiperazin-1-yl)tetrazolo[1,5-c]quinazoline]
> 10 µM | < 10 µM | CN1CCN(c2nc3ccc(Cl)cc3c3nncn23)CC1 [Example 14, 9-chloro-5-(4-methylpiperazin-1-yl)-[1,2,4]triazolo[4,3-c]quinazoline]
< 10 µM | > 10 µM | Cc1ccc2nc(N3CCN(C)CC3)c3nnnn3c2c1 [Example 15, 8-methyl-4-(4-methylpiperazin-1-yl)tetrazolo[1,5-a]quinoxaline]
< 10 µM | > 10 µM | Clc1ccc2c(c1)nc(N1CCNCC1)c1nnnn12 [Example 16, 7-Chloro-4-(piperazin-1-yl)tetrazolo[1,5-a]quinoxaline]
< 10 µM | > 10 µM | CN1CCN(c2nc3cc(Cl)ccc3n3nnnc23)CC1 [Example 17, 7-Chloro-4-(4-methylpiperazin-1-yl)tetrazolo[1,5-a]quinoxaline]
< 10 µM | > 10 µM | Cc1ccc2nc(N3CCNCC3)c3nnnn3c2c1 [Example 18, 8-Methyl-4-(piperazin-1-yl)tetrazolo[1,5-a]quinoxaline]
< 10 µM | > 10 µM | CN1CCN(c2nc3cc(C(F)(F)F)ccc3n3nnnc23)CC1 [Example 28, 4-(4-methylpiperazin-1-yl)-7-(trifluoromethyl)tetrazolo[1,5-a]quinoxaline]
< 10 µM | > 10 µM | CN1CCN(c2nc3cc(Cl)c(F)cc3n3cnnc23)CC1 [Example 33, 7-chloro-8-fluoro-4-(4-methylpiperazin-1-yl)-[1,2,4]triazolo[4,3-a]quinoxaline]
